US8106055B2, “Substituted amide compounds” (Gruenenthal GmbH, priority 2007, dated 2012)

Key:
[1] = molecular target: T1, human μ opiate receptor (Homo sapiens, UniProt P35372); assay: Affinity for the human μ opiate receptor ([3H]-naloxone displacement, CHO-K1 receptor membrane preparation, SPA); format: binding; settings: test concentration of 1 μM
T1 construct: purchased PerkinElmer Life Sciences, Zaventem, Belgium RB-HOM; host or cells: CHO-K1 cells (membrane preparation)
In short: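 SPA, CHO-K1 hμ membranes; 1 nmol/l [3H]-naloxone; Tris-HCl 50 mmol/l + 0.06% BSA; 90 min RT; NSB with 100 μmol/l naloxone; β-counting. Readout: % inhibition of specific binding at 1 μM test compound.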

[2] = molecular target: T2, bradykinin 1 receptor (B1R) of the rat (Rattus norvegicus, UniProt P97583); assay: Functional investigation on the rat bradykinin 1 receptor (B1R), Ca2+ FLIPR assay in CHO K1 rB1R cells; format: cell-based; settings: B1R antagonism rat; test substance 10 μM; Ca2+ FLIPR, CHO K1 rB1R cells
T2 construct: expressed in transfected cells; host or cells: CHO K1 cells
T2 sequence (P97583 1-337): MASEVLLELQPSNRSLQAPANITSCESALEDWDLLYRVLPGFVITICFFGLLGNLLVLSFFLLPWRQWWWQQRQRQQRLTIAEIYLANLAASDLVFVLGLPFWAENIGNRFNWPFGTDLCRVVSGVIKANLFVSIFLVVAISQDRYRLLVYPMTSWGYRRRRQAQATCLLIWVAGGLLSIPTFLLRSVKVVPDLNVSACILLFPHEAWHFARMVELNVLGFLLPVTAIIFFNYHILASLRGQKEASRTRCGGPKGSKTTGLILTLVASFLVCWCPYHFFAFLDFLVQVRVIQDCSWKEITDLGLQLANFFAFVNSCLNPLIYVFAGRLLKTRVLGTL
In short: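 Peak Ca2+-dependent fluorescence in B1R-transfected CHO K1 cells measures antagonism of an EC80 agonist challenge given 10-20 min after compound. Agonist is Lys-Des-Arg9-bradykinin for human, Des-Arg9-bradykinin for rat receptor.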

T1 sequence (P35372 whole entry): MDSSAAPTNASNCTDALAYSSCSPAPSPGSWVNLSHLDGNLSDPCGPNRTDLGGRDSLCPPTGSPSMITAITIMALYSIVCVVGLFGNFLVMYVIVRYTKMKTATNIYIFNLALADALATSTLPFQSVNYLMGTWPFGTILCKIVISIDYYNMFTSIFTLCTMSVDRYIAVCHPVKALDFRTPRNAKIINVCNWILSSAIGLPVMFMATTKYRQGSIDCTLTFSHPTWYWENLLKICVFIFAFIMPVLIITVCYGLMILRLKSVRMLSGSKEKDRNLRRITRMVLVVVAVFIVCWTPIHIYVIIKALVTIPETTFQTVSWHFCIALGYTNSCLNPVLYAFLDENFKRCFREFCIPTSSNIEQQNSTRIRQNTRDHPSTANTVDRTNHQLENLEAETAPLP

Compound	μ (binding on the μ opioid receptor, % inhibition) [1] [%]	B1R Ant. r [10 μM] % Inhibition [2] [%]
COc1ccc(S(=O)(=O)N2CCCCC2COCC(=O)NC2CCC(C(c3ccc(F)cc3)N(C)C)CC2)cc1 (stereo not drawn) [Example 450]	50	52
CN(C)C(CCc1ccccc1)C1CCC(CNC(=O)COC2CCCCC2N(C)S(=O)(=O)c2ccc(Cl)c(Cl)c2)CC1 (stereo not drawn) [Example 451]	48	11
Cc1ccc(S(=O)(=O)N(C)CCOCC(=O)NCC2CCC(C(CCc3ccccc3)N(C)C)CC2)cc1 (stereo not drawn) [Example 452]	46	18
COc1cc(C)c(S(=O)(=O)N2CCC(OCC(=O)NC3CCC(C(c4ccc(F)cc4)N(C)C)CC3)CC2)c(C)c1C (stereo not drawn) [Example 454]	48	10
CN(C)C(c1ccc(F)cc1)C1CCC(CCNC(=O)COC2CCN(S(=O)(=O)c3ccc(Cl)cc3Cl)C2)CC1 (stereo not drawn) [Example 456]	50	48
Cc1ccc(S(=O)(=O)N(C)CCOCC(=O)NCCC2CCC(C(c3ccc(F)cc3)N(C)C)CC2)cc1 (stereo not drawn) [Example 457]	47	11
COc1cc(C)c(S(=O)(=O)N(C)CCOCC(=O)NCC2CCC(C(c3ccc(F)cc3)N(C)C)CC2)c(C)c1 (stereo not drawn) [Example 458]	48	104
CN(C)C(c1ccc(Cl)cc1)C1CCC(CNC(=O)COCCN(C)S(=O)(=O)c2ccc(Cl)cc2Cl)CC1 (stereo not drawn) [Example 459]	36	26
COc1ccc(S(=O)(=O)N(C)CCOCC(=O)NCCC2CCC(C(c3ccc(Cl)cc3)N(C)C)CC2)cc1 (stereo not drawn) [Example 460]	52	71
COc1ccc(S(=O)(=O)N2CCCC2COCC(=O)NC2CCC(C(c3ccc(F)cc3)N(C)C)CC2)cc1 (stereo not drawn) [Example 461]	43	20
COc1ccc(S(=O)(=O)N2CCCCC2COCC(=O)NCCC2CCC(C(c3ccc(F)cc3)N(C)C)CC2)cc1OC (stereo not drawn) [Example 462]	51	−13
CN(C)C(c1ccc(F)cc1)C1CCC(NC(=O)COC2CCN(S(=O)(=O)c3ccccc3)C2)CC1 (stereo not drawn) [Example 463]	38	17
CN(C)C(c1ccc(F)cc1)C1CCC(CCNC(=O)COC2CCN(S(=O)(=O)c3ccc(Cl)cc3)C2)CC1 (stereo not drawn) [Example 464]	46	−6
CN(C)C(c1ccc(F)cc1)C1CCC(CCNC(=O)COC2CCN(S(=O)(=O)c3cccc(C(F)(F)F)c3)C2)CC1 (stereo not drawn) [Example 466]	30	22
COc1cc(C)c(S(=O)(=O)N2CCC(OCC(=O)NCCC3CCC(C(c4ccc(F)cc4)N(C)C)CC3)C2)c(C)c1C (stereo not drawn) [Example 467]	40	47
COc1cc(C)c(S(=O)(=O)N2CCCC(OCC(=O)NCCC3CCC(C(c4ccc(F)cc4)N(C)C)CC3)C2)c(C)c1C (stereo not drawn) [Example 468]	53	33
COc1ccc(S(=O)(=O)N2CCCCC2COCC(=O)NCC2CCC(C(CCc3ccccc3)N(C)C)CC2)cc1 (stereo not drawn) [Example 469]	50	87
CN(C)C(c1ccc(F)cc1)C1CCC(CCNC(=O)COCCC2CCN(S(=O)(=O)c3ccccc3)CC2)CC1 (stereo not drawn) [Example 470]	35	23
CN(C)C(c1ccc(Cl)cc1)C1CCC(CNC(=O)COC2CCN(S(=O)(=O)c3ccccc3)CC2)CC1 (stereo not drawn) [Example 471]	35	15
COc1cc(C)c(S(=O)(=O)N2CCC(OCC(=O)NCCC3CCC(C(c4ccc(Cl)cc4)N(C)C)CC3)CC2)c(C)c1C (stereo not drawn) [Example 472]	44	26
COc1cc(C)c(S(=O)(=O)N(CCOCC(=O)NCC2CCC(C(c3ccc(Cl)cc3)N(C)C)CC2)Cc2ccccc2)c(C)c1 (stereo not drawn) [Example 473]	34	−3

Compound	μ (binding on the μ opioid receptor, % inhibition) [1] [%]	B1R Ant. r [10 μM] % Inhibition [2] [%]
COc1ccc(S(=O)(=O)N2CCCCC2COCC(=O)NCCC2CCC(C(c3ccc(Cl)cc3)N(C)C)CC2)c(OC)c1 (stereo not drawn) [Example 474]	46	10
Cc1cc(C)c(S(=O)(=O)N2CCC(OCC(=O)NCC3CCC(C(CCc4ccccc4)N(C)C)CC3)C2)c(C)c1 (stereo not drawn) [Example 475]	48	40
CN(C)C(c1cccc(F)c1)C1CCC(CNC(=O)COC2CCN(S(=O)(=O)c3ccccc3)CC2)CC1 (stereo not drawn) [Example 477]	51	17
CN(C)C(c1ccc(F)cc1)C1CCC(NC(=O)COCC2CCCN(S(=O)(=O)c3ccccc3)C2)CC1 (stereo not drawn) [Example 478]	40	23
CN(C)C(c1ccc(F)cc1)C1CCC(CCNC(=O)COCC2CCCN(S(=O)(=O)c3ccccc3)C2)CC1 (stereo not drawn) [Example 479]	42	22
COc1cc(C)c(S(=O)(=O)N2CCC(OCC(=O)NCCC3CCC(C(c4ccc(F)cc4)N(C)C)CC3)CC2)c(C)c1C (stereo not drawn) [Example 480]	38	4
COc1cc(C)c(S(=O)(=O)N2CCC(CCOCC(=O)NCC3CCC(C(c4ccc(F)cc4)N(C)C)CC3)CC2)c(C)c1C (stereo not drawn) [Example 481]	38	49
COc1ccc(S(=O)(=O)N(C)CCOCC(=O)NCCC2CCC(C(c3ccc(F)cc3)N(C)C)CC2)cc1OC (stereo not drawn) [Example 484]	35	19
COc1cc(C)c(S(=O)(=O)N2CCCC(OCC(=O)NCCC3CCC(C(c4ccc(Cl)cc4)N(C)C)CC3)C2)c(C)c1C (stereo not drawn) [Example 485]	46	6
CN(C)C(c1ccc(F)cc1)C1CCC(CCNC(=O)COCCN(C)S(=O)(=O)c2ccc(F)cc2)CC1 (stereo not drawn) [Example 487]	37	9
CN(C)C(c1ccc(F)cc1)C1CCC(CNC(=O)COC2CCCN(S(=O)(=O)c3ccccc3)C2)CC1 (stereo not drawn) [Example 488]	40	−6
CN(C)C(c1ccc(F)cc1)C1CCC(CCNC(=O)COCCN(Cc2ccccc2)S(=O)(=O)c2ccccc2)CC1 (stereo not drawn) [Example 489]	35	22
Cc1cc(C)c(S(=O)(=O)N(C)CCOCC(=O)NC2CCC(C(c3ccc(F)cc3)N(C)C)CC2)c(C)c1 (stereo not drawn) [Example 490]	42	12
Cc1ccc(S(=O)(=O)N2CCC(OCC(=O)NCCC3CCC(C(c4ccc(F)cc4)N(C)C)CC3)C2)cc1 (stereo not drawn) [Example 491]	34	16
COc1cc(C)c(S(=O)(=O)N2CCC(OCC(=O)NCCC3CCC(C(c4ccc(Cl)cc4)N(C)C)CC3)C2)c(C)c1 (stereo not drawn) [Example 492]	44	78
CN(C)C(c1ccc(F)cc1)C1CCC(CCNC(=O)COCCN2CCN(S(=O)(=O)c3ccccc3)CC2)CC1 (stereo not drawn) [Example 493]	34	4
COc1cc(C)c(S(=O)(=O)N(CCOCC(=O)NCC2CCC(C(c3ccc(F)cc3)N(C)C)CC2)Cc2ccccc2)c(C)c1 (stereo not drawn) [Example 494]	42	36
CN(C)C(CCc1ccccc1)C1CCC(CNC(=O)COC2CCN(S(=O)(=O)c3ccc(Cl)cc3Cl)C2)CC1 (stereo not drawn) [Example 496]	41	35
COc1ccc(S(=O)(=O)N2CCC(OCC(=O)NCC3CCC(C(c4ccc(F)cc4)N(C)C)CC3)C2)cc1OC (stereo not drawn) [Example 497]	37	17
COc1cc(C)c(S(=O)(=O)N2CCC(OCC(=O)NCC3CCC(C(c4ccc(Cl)cc4)N(C)C)CC3)CC2)c(C)c1C (stereo not drawn) [Example 498]	36	2
COc1cc(C)c(S(=O)(=O)N2CCC(CCOCC(=O)NCC3CCC(C(c4ccc(Cl)cc4)N(C)C)CC3)CC2)c(C)c1C (stereo not drawn) [Example 499]	37	−10
